Laboratory results as given in ChEMBL document CHEMBL1201862, “PubChem BioAssay data set” (2004).
Activity calls are given as the source filed them.

Tests used:
cells = type: functional
[1] = biological target: T1, Rac GTPase-activating protein 1 (Homo sapiens, UniProt Q9H0H5); assay: blockers of MgcRacGAP-driven Rac1 GTP hydrolysis – biochemical, ADP Hunter fluorescence, primary and confirmatory, confirmation (AID 624330); type: functional
T1 sequence (Q9H0H5 whole entry): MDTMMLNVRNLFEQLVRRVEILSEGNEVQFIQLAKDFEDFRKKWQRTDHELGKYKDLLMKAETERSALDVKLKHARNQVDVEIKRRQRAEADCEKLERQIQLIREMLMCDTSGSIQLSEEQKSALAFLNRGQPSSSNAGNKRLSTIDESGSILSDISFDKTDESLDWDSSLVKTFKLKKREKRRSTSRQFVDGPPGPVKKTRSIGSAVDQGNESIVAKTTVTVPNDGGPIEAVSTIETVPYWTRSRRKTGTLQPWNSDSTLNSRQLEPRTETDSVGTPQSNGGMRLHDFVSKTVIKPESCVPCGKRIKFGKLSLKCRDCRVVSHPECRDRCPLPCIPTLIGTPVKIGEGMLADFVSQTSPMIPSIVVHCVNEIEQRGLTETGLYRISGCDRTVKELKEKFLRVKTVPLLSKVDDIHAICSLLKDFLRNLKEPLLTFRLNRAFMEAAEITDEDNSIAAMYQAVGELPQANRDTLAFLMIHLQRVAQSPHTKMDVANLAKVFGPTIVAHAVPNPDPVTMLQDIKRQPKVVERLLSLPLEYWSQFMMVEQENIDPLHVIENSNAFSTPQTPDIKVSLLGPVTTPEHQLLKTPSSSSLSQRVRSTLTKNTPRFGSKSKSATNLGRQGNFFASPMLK

[2] = Luminescence Cell-Based Dose Confirmation HTS to Identify Activators of 5'UTR Stem-Loop Driven Alpha-Synuclein mRNA Translation in H4 Neuroglioblastoma Cells. [Related pubchem assays: 1829 (Project Summary), 1814 (Primary HTS)]; type: functional
H4 = assay: Luminescence Cell-Based Dose Response HTS to Identify Activators of 5'UTR Stem-Loop Driven Prion Protein mRNA Translation in H4 Neuroglioblastoma Cells. [Related pubchem assays: 1829 (Project Summary), 1814 (Primary HTS)]; type: functional; details: Homo sapiens
[3] = Luminescence Cell-Based Dose Response HTS to Identify Activators of Luciferase Translation or Activity in H4 […] Cells. [Related pubchem assays: 1829 (Project Summary), 1814 (Primary HTS)]; type: functional
Genome polyprotein = Genome polyprotein (dengue virus type 2, UniProt P29990); assay: flavivirus cap methylation enzyme inhibition – biochemical, confirmation dose response, primary screen (AID 588689); type: functional
Sequence of Genome polyprotein (P29990 2492-3391 limits assumed): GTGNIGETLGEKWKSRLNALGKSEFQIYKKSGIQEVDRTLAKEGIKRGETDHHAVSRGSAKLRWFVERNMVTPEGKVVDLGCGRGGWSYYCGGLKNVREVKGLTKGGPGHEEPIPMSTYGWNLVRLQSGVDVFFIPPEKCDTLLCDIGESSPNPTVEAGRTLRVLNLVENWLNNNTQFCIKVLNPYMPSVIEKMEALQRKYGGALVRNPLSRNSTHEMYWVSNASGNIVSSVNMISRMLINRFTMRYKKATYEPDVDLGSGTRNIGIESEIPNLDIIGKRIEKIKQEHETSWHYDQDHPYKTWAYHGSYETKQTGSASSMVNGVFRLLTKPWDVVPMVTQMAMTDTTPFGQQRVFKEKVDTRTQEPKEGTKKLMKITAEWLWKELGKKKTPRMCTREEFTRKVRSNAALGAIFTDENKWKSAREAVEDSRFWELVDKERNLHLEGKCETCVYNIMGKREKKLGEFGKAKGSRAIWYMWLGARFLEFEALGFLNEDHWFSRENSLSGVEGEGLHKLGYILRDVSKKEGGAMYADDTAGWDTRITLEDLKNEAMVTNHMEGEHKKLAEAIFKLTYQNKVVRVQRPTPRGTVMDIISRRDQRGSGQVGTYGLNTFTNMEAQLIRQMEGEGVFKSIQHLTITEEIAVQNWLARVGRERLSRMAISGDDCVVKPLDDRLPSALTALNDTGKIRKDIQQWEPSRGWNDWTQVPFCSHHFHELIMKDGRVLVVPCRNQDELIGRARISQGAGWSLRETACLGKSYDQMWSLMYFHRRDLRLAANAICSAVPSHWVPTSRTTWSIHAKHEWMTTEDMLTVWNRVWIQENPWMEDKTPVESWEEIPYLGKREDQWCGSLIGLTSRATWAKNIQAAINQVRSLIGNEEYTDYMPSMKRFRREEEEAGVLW

[4] = biological target: T2, Zinc finger protein mex-5 (Caenorhabditis elegans, UniProt Q9XUB2); assay: potency of MEX-5 RNA-binding blockers – biochemical, C. elegans, fluorescence polarization, dose response (AID 1960)
T2 sequence (Q9XUB2 whole entry): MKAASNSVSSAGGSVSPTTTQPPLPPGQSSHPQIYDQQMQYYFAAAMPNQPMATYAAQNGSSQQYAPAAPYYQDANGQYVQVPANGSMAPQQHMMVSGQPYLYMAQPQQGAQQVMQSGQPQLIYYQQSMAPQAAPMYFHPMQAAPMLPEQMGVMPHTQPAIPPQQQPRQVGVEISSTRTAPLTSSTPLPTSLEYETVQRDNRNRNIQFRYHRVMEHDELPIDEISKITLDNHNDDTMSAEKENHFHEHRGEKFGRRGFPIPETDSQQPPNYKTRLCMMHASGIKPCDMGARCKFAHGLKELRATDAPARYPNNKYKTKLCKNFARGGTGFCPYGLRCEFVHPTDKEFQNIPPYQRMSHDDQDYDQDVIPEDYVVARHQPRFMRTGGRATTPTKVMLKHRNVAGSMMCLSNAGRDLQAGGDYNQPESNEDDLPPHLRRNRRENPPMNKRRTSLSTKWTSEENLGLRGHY

[5] = biological target: T3, RNA-binding protein pos-1 (Caenorhabditis elegans, UniProt G5EF15); assay: disruptors of C. elegans POS-1 RNA interaction – biochemical, fluorescence polarization, dose response (AID 1964);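 also: purified POS-1 fused to maltose binding protein made in E. coli; potency of compounds blocking POS-1 binding to fluorescent RNA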
T3 sequence (G5EF15 whole entry): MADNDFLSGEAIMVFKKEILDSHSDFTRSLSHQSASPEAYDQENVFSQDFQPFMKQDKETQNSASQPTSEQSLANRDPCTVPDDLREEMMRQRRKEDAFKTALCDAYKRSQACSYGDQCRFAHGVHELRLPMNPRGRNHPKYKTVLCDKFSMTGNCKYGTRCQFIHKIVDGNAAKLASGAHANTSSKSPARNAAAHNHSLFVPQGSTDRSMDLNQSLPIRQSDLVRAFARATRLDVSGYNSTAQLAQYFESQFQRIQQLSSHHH

[6] = reduction of Shn3 3'UTR-driven luciferase in osteoblasts – cell-based, Clone20 osteoblasts, firefly luciferase, cherry-picked, dose response (AID 624132); type: functional;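 also: firefly luciferase luminescence from reporter carrying the Shn3 3'UTR in osteoblasts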
[7] = loss of viability in HepG2 cells – cell-based, CellTiter-Glo, cherry-picked, cytotoxicity control for Shn3 inhibitor project, dose response (AID 624134); type: functional
[8] = non-specific 3'UTR reporter inhibition in Clone20-Shn3RL – cell-based, Renilla luciferase, cherry-picked, counter-screen for Shn3 inhibitor project, dose response (AID 624133); type: functional
[9] = NIH3T3 cell viability loss – ATP luminescence, mouse fibroblasts, counter-screen, dose response (AID 2010); type: functional, cell-based;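 also: cells exposed to compound for about 90 hours before reading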
Nonstructural protein 1 = Nonstructural protein 1 (Influenza A virus, UniProt Q194T2); type: functional, Influenza A virus (A/California/07/2009(H1N1))
Sequence of Nonstructural protein 1 (Q194T2 whole entry): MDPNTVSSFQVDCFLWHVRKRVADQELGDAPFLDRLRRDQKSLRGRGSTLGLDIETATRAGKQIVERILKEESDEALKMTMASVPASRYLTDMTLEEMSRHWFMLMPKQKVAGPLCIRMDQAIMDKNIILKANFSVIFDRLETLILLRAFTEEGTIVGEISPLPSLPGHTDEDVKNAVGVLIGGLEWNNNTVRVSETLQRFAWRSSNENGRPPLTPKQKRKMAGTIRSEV

[10] = Trypanosoma cruzi growth suppression in host cells – NIH3T3 host cells, beta-gal luminescence, confirmation (AID 2044); type: functional, cell-based;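 also: intracellular parasites grown in NIH/3T3 mouse fibroblasts as host cells; luminescent beta-galactosidase reporter signal from transgenic T. cruzi replicating inside host cells; inhibitors lower the luminescence signal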
[11] = Luminescence Cell-Based Dose Confirmation HTS to Identify Inhibitors of Platelet Dense Granule Release. [Related pubchem assays: 1663 (Primary HTS), 1678 (Summary of Project)]; type: functional
[12] = biological target: Luciferin 4-monooxygenase (Photinus pyralis, UniProt P08659); assay: inhibition of purified Photinus pyralis luciferase – biochemical, luminescence, dose response (AID 1891)
Sequence of Luciferin 4-monooxygenase (P08659 whole entry): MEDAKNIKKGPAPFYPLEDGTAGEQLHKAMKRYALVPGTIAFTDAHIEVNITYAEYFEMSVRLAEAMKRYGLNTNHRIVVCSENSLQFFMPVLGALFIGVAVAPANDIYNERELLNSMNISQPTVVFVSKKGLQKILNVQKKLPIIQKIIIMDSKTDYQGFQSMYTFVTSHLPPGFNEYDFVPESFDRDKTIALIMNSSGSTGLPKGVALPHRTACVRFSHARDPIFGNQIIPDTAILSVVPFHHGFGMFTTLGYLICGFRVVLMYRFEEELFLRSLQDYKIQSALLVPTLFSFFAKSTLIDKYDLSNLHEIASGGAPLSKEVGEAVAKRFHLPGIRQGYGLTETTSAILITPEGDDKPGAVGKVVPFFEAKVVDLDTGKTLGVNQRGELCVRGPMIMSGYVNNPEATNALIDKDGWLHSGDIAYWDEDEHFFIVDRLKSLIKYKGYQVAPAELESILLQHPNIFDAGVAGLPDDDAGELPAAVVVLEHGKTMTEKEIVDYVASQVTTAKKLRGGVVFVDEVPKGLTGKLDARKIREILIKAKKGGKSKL

P388/ADR = assay: cells; type: functional; details: Mus musculus
P388 = assay: cells; type: functional; details: Mus musculus
SN12K1 = assay: cells; type: functional; details: Homo sapiens
Fatty acid synthase = Fatty acid synthase (Homo sapiens, UniProt P49327); assay: inhibition of human FAS-TE enzyme activity – biochemical, kinetic fluorescence intensity, dose response (AID 624326); type: functional;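 also: rate of fluorescence rise from hydrolysis of a fluorogenic O-methyl fluorescein ester substrate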
Sequence of Fatty acid synthase (P49327 whole entry): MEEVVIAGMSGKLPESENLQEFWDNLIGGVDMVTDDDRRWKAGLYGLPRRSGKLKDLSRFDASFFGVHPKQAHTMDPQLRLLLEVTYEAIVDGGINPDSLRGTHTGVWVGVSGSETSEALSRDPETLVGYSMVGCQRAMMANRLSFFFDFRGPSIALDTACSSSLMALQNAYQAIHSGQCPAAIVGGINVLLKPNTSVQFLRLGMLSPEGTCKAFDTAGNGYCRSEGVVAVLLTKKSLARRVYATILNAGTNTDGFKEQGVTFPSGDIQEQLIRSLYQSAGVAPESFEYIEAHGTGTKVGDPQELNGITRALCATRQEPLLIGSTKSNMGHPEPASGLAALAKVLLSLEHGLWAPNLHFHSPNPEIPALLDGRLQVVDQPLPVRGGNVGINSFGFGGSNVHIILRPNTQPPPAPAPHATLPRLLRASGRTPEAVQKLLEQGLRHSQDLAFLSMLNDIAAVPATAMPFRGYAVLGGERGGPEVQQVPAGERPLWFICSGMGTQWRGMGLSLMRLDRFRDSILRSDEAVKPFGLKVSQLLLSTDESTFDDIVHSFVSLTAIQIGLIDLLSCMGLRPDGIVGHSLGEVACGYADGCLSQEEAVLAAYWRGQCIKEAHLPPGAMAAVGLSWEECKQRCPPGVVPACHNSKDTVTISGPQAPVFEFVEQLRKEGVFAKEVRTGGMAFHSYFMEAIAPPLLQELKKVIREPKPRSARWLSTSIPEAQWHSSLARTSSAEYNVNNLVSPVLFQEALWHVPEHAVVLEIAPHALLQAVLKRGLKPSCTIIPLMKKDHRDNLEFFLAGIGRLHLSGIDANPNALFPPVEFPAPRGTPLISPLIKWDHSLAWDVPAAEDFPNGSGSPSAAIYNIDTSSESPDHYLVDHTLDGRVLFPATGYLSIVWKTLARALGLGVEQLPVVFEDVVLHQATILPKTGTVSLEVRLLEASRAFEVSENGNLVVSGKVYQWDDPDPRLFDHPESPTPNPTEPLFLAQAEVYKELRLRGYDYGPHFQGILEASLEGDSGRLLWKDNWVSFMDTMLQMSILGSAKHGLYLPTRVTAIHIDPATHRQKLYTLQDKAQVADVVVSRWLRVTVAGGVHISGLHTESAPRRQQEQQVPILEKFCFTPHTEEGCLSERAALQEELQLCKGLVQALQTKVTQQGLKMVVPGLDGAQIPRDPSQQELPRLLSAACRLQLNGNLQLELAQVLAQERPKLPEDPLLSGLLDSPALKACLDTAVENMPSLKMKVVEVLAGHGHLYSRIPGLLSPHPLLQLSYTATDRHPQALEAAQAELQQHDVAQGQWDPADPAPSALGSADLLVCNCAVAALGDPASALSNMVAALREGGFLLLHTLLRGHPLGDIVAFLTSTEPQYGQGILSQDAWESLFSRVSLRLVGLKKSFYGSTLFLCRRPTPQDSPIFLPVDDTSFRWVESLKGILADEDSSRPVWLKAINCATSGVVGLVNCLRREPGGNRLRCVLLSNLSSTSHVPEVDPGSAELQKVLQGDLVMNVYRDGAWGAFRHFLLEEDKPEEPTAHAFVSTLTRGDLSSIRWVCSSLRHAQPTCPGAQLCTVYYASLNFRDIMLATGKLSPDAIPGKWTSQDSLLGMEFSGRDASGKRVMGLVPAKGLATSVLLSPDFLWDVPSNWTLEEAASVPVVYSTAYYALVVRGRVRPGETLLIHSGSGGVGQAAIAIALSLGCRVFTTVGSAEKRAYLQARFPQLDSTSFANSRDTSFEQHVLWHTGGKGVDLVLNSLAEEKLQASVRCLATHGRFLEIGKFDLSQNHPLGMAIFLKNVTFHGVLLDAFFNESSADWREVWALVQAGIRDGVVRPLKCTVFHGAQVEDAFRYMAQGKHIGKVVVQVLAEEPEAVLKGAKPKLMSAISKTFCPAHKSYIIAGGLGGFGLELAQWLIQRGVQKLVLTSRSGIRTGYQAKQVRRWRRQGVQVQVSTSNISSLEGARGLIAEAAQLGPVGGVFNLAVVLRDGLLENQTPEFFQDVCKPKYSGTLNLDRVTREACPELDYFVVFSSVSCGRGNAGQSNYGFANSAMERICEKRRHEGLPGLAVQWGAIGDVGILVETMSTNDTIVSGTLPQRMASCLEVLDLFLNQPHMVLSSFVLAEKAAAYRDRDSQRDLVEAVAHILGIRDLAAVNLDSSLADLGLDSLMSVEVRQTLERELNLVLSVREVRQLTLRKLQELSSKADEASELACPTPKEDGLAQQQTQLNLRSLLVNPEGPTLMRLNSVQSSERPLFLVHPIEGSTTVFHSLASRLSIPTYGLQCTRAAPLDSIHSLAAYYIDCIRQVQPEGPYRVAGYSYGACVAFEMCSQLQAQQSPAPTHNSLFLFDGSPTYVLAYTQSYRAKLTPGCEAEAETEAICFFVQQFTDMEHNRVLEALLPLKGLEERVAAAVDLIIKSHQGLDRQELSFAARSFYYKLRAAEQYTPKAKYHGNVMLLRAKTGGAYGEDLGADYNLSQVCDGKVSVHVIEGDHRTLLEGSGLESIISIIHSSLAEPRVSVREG

## c1ccc(-c2ccccc2OCCCCn2ccnc2)cc1
cells
  IC50: 18.1 µM (active)
[1]
  IC50: 127 µM (active)

## CCOC(=O)c1cc(C)n(CCc2ccccc2)c1C
[2]
  EC50: > 120 µM (not active)
H4
  EC50: > 120 µM (not active)
[3]
  EC50: 15.7 µM (active)

## CCc1cccc(NC(=O)Nc2cccs2)c1
[2]
  EC50: 14.6 µM (active)
H4
  EC50: > 120 µM (not active)
[3]
  EC50: 2.48 µM (active)

## O=C(O)/C=C/C(=O)c1c(-c2ccccc2)[nH]c2ccccc12
Genome polyprotein
  IC50: > 100 µM (active)

## O=C1NC(=O)C(=Cc2cc(Cl)ccc2OCc2ccc(C(=O)O)cc2)C(=O)N1
Genome polyprotein
  IC50: 20.7 µM (active)

## CC(=O)c1ccc2c(c1)C1C=CCC1C(c1ccncc1)N2 (stereo unspecified)
[4]
  EC50: 47.7 µM (active)
[2]
  EC50: 14.4 µM (active)
H4
  EC50: 25.5 µM (active)
[5]
  EC50: > 300 µM (not active)
[3]
  EC50: 9.61 µM (active)

## COc1ccc(C(=O)C(C)OC(=O)c2cccc(S(=O)(=O)Nc3cc(Cl)c(OC)cc3OC)c2)cc1 (stereo unspecified)
[6]
  AC50: 5.54 µM (active)
[7]
  AC50: > 70 µM (inactive)
[8]
  AC50: 28.6 µM (active)

## CCCOC1CCCN(C(=O)c2cc(COc3cncc(Cl)c3)on2)C1 (stereo unspecified)
[2]
  EC50: 3.46 µM (active)
H4
  EC50: 59.7 µM (active)
[3]
  EC50: 47.5 µM (active)

## O=C1ON=C(c2ccc([N+](=O)[O-])cc2)/C1=C/c1ccccc1O
Genome polyprotein
  IC50: 32.4 µM (active)

## O=C(Nc1ccccc1F)c1ccc2nc(N3C(=O)CCC3=O)sc2c1
[2]
  EC50: 29.8 µM (active)
H4
  EC50: 8.54 µM (active)
[3]
  EC50: 32.5 µM (active)

## CCCCNC(=O)COC(=O)c1cc(Br)ccc1Cl
cells
  IC50: 9.24 µM (active)

## Cc1ccc(S(=O)(=O)NCc2ccc3c(c2)cc(C)n3C)cc1
[9]
  EC50: > 60 µM (not active)
Nonstructural protein 1
  IC50: 86.6 µM (active)
[10]
  EC50: 3.2 µM (active)

## CCN(CC)CCNC(=O)c1nn(-c2ccc(C)cc2)c(=O)c2c1c1ccccc1n2C
[2]
  EC50: 15 µM (active)
[9]
  EC50: > 30 µM (not active)
H4
  EC50: 61.3 µM (active)
[3]
  EC50: > 120 µM (not active)
[10]
  EC50: 0.157 µM (active)

## COc1cc(O)c2c(=O)c(-c3ccc(O[C@@H]4O[C@H](CO)[C@@H](O)[C@H](O)[C@H]4O)cc3)coc2c1
[2]
  EC50: 0.25 µM (active)
H4
  EC50: 21.2 µM (active)
[3]
  EC50: 38.6 µM (active)

## O=C(/C=C/c1ccccc1Cl)Nc1ccncc1
[2]
  EC50: 26.2 µM (active)
H4
  EC50: 0.524 µM (active)
[11]
  EC50: 26.7 µM (active)
[12]
  EC50: 20.6 µM (active)
[3]
  EC50: 56.2 µM (active)

## Cc1cc(-c2sccc2Br)nc(-n2cccc2)n1
[2]
  EC50: > 120 µM (not active)
H4
  EC50: 9.52 µM (active)
[3]
  EC50: 13.3 µM (active)

## C=C1CC(COc2cc(=O)oc3ccccc23)(c2ccccc2)OC1=O (stereo unspecified)
[6]
  AC50: 3.93 µM (active)
[7]
  AC50: 13.7 µM (active)
[8]
  AC50: 7.58 µM (active)

## CC(C)(C)OC(=O)NCCCCCNC(=O)c1[nH]cnc1C(=O)NCc1ccc(CNC(=O)OC(C)(C)C)cc1
[6]
  AC50: 3.95 µM (active)
[7]
  AC50: > 70 µM (inactive)
[8]
  AC50: 8.62 µM (active)

## CCN1CC2(CO)CCC(OC)C34C5CC6C(OC)CC(O)(C5C6OC)C(O)(C(OC)C23)C14 (stereo unspecified)
P388/ADR
  GI50: > 80.7 µM (inactive)
P388
  GI50: > 174 µM (inactive)
SN12K1
  GI50: > 375 µM (inactive)

## O=C(O)CCC(NC(=O)c1ccc(Nc2nc3ccc(C(F)(F)F)cc3nc2-c2ccccc2)cc1)C(=O)O (stereo unspecified)
P388/ADR
  GI50: 71.1 µM (inactive)
P388
  GI50: 35 µM (inactive)
SN12K1
  GI50: > 100 µM (inactive)

## Cn1c(-c2ccccc2)cc(-c2cccs2)c1-c1cccs1
P388/ADR
  GI50: 33.2 µM (inactive)
P388
  GI50: 10.8 µM (inactive)
SN12K1
  GI50: 18.1 µM (inactive)

## C=C1C(=O)OC2CC3(C)OC3C3OC3C3=CC(OC3=O)C12 (stereo unspecified)
[6]
  AC50: 1.45 µM (active)
[7]
  AC50: 19.2 µM (active)
[8]
  AC50: 1.86 µM (active)

## Cn1cccc1/C=N/NC(=O)c1ccncc1
cells
  IC50: 0.75 µM (active)

## O=CNc1cccc2c3c([nH]c12)CCCCCC3
P388/ADR
  GI50: 73.1 µM (inactive)
P388
  GI50: > 65.3 µM (inactive)
SN12K1
  GI50: > 100 µM (inactive)

## CC1[C@@H]2CC=C3[C@H]4CCC5Cc6nc7c(nc6C[C@@]5(C)C4(O)CC(=O)[C@]32CO[C@]12OC(C)(C)CC2O)CC1CC[C@@H]2C3=C[C@H]4O[C@@]5(O[C@@](C)(CO)C[C@@H]5O)C(C)[C@@]4(O)[C@]3(C)[C@@H](O)CC2[C@]1(C)C7 (stereo partly specified)
P388/ADR
  GI50: 0.00879 µM (active)
P388
  GI50: 0.00036 µM (active)

## CN(C)CCNCc1c2ccccc2c(CNCCN(C)C)c2ccccc12
P388/ADR
  GI50: > 100 µM (inactive)
P388
  GI50: 36.9 µM (inactive)
SN12K1
  GI50: 25 µM (inactive)

## O=C(N/N=C/c1ccccn1)c1cccc(S(=O)(=O)Nc2ccccc2Cl)c1
cells
  IC50: 47.1 µM (active)

## O=C(N/N=C/c1cccc2nccnc12)c1ccncc1
cells
  IC50: 0.21 µM (active)

## Cc1cc(C(=O)N/N=C/c2cc([N+](=O)[O-])cc(C)c2O)[nH]n1
Fatty acid synthase
  IC50: 11.8 µM (active)
Nonstructural protein 1
  IC50: 8.76 µM (active)

## O=C(N/N=C/C=C/c1ccccc1[N+](=O)[O-])c1ccncc1
cells
  IC50: 0.4 µM (active)

## Nc1nc(=O)n(C2OC(CO)C(O)C2O)cc1F (stereo unspecified)
P388/ADR
  GI50: 0.016 µM (active)
P388
  GI50: < 0.0107 µM (active)
SN12K1
  GI50: 0.0705 µM (active)

## O[C@H]1[C@H](O)[C@@H](O)CN2CC[C@H](O)[C@H]12 [CASTANOSPERMINE]
P388/ADR
  GI50: > 91 µM (inactive)
P388
  GI50: > 100 µM (inactive)
SN12K1
  GI50: > 100 µM (inactive)

## CN(C)/N=N/c1[nH]cnc1C(N)=O [DACARBAZINE]
P388/ADR
  GI50: 40.3 µM (inactive)
P388
  GI50: 19.3 µM (inactive)
SN12K1
  GI50: 28.6 µM (inactive)
